The source of these data is article PMC12285154, “New insights into the 17β-hydroxysteroid dehydrogenase type 10 and amyloid-β 42 derived cytotoxicity relevant to Alzheimer’s disease” (Alzheimer's Research & Therapy, 2025).

The target in assay [1] is amyloid-β 42 Aβ1-42 (Homo sapiens) (UniProt P05067). The following applies: cited from earlier work.
The target in assay [2] is T1, 17β-hydroxysteroid dehydrogenase type 10 (HSD10) (Homo sapiens, UniProt Q99714).
T1 construct: gene HSD17B10; HSD10 overexpressed in HEK293 cells
T1 sequence (Q99714 2-261): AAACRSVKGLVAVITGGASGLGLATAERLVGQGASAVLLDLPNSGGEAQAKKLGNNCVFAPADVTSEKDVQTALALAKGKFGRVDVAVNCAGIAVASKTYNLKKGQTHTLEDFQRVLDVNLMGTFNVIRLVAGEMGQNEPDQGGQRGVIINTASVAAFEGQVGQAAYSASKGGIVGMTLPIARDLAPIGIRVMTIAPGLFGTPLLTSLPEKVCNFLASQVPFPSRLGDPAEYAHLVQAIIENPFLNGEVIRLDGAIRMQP
Nature of the assay: (-)-CHANA fluorogenic probe turnover in HSD10-overexpressing HEK293 cells. The assay is classed as cell-based.

A word on the Kd: it is the constant that tells how readily two partners part at equilibrium. By IC50 is commonly meant the midpoint of a concentration-inhibition curve. A higher IC50 goes with weaker potency.

amyloid-β 42 Aβ1-42 (Homo sapiens), sequence (P05067 1-42): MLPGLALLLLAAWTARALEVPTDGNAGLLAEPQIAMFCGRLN

Regarding HSD10 (from UniProt Q99714), the Kd in assay [1] is 55.8 nM. Molecule `O=C(C(c1ccccc1)n1cnc2[nH]ncc2c1=S)N1CCCCCC1` (stereo not drawn) [AG18051] yielded a 50% inhibitory concentration (IC50) in assay [2] of 190 nM. As for `COc1ccc2nc(NC(=O)c3ccc(O)c(Cl)c3)sc2c1` [compound 34, inhibitor 34], the IC50 in assay [2] was determined as 4260 nM.
